Reference: publication PMC10744391, “Sulfated Triterpene Glycosides from the Far Eastern Sea Cucumber Cucumaria djakonovi: Djakonoviosides C1, D1, E1, and F1; Cytotoxicity against Human Breast Cancer Cell Lines; Quantitative Structure–Activity Relationships” (Marine Drugs, 2023)
Entries after “also recorded” stand apart in the source; their conditions may differ. Structures can show the parent of a compound that is named as a salt. Where two headings read alike, the source gives them in different places.

Columns and labels:
Assay type in all cases: cell-based
human erythrocytes = assay: Hemolytic activity against human erythrocytes; details: for HC50: Erythrocyte, read-out: ED50, Erythrocytes (hemolytic activity); for hemolytic activity (in words): concentration range up to 50 µM
Experimental: Human blood (B(III) Rh+) was used to obtain erythrocytes by centrifuging 450× g three times for 5 min with phosphate-buffered saline (PBS) (pH 7.4) at 4 °C on centrifuge LABOFUGE 400R (Heraeus, Hanau, Germany). Ice-cold PBS (pH 7.4) was used for resuspension of erythrocytes residue to a final optical density of 1.5 at 700 nm, which was kept on ice. Then, 20 µL of tested compound solution or control—djakonovioside A1 [5]—were added to 180 µL of erythrocyte suspension in V-bottom 96-well plates and exposed for 1 h at 37 °C. Next, centrifugation at 900× g for 10 min on laboratory centrifuge LMC-3000 (Biosan, Riga, Latvia), led to layers’ separation, and 100 µL of supernatant was carefully decanted and transferred into new flat-plate each. The values of erythrocyte lysis were measured on microplate photometer Multiskan FC (Thermo Fisher Scientific, Waltham, MA, USA) at λ = 570 nm as hemoglobin concentration in supernatant. The effective dose, causing lysis of 50% erythrocytes (ED50), was calculated with SigmaPlot 14.0 software. All the experiments were carried out in triple repetitions, p ≤ 0.05.

[1] = system: MCF-7 human breast cancer cell line; assay: cells; details: for IC50: read-out: Cytotoxicity, IC50, MCF-7; for Selectivity Index (SI), MCF-7: ratio of IC50 for healthy (MCF-10A) and cancer cells
[2] = system: human breast cancer cell lines MCF-7, T-47D and MDA-MB-231; assay: Cytotoxic activity (MTT assay), statements on the human breast cancer cell lines together; details: MCF-7, T-47D, MDA-MB-231; concentration range up to 50 µM
Description: Human erythrocytes were purchased from the Station of Blood Transfusion, Vladivostok. Human mammary epithelial cell line MCF-10A CRL-10317, human breast cancer cell lines T-47D HTB-133, MCF-7 HTB-22, and MDA-MB-231 CRM-HTB-26 were received from ATCC (Manassas, VA, USA). Culturing conditions: medium of RPMI-1640 with 1% penicillin/streptomycin (Biolot, St. Petersburg, Russia) and 10% fetal bovine serum (FBS) (Biolot, St. Petersburg, Russia) for T-47D cell line; Minimum Essential Medium (MEM) with 1% penicillin/streptomycin sulfate (Biolot, St. Petersburg, Russia) and FBS (Biolot, St. Petersburg, Russia) to a final concentration of 10% for MCF-7 and MDA-MB-231 cells; DMEM/F12 medium with 10% FBS, 20 ng/mL EGF, […], 100 ng/mL cholera toxin, 10 μg/mL insulin, and 1% penicillin/streptomycin (Bioinnlabs, Russia) for MCF-10A cell line.
Methodology: to each well of 96-well plates, the cell suspension (180 µL) with solution (20 µL) of tested glycoside in the certain concentration was placed (MCF-10A, MCF-7, T-47D, and MDA-MB-231—7 × 10^3 cells per well) and incubated in the atmosphere with 5% CO2 at 37 °C for 24 h. The times of incubation of cucumarioside A2-5 (6) and djakonoviosides C1 (1) and E1 (3), at concentrations of 0.5–12.0 μM with T-47D, MCF-7, or MDA-MB-231 cells, were 24, 48, and 72 hrs. Then, the solutions of tested compounds with medium were replaced by 100 µL of fresh medium, and 10 µL of 3-(4,5-dimethylthiazol-2-yl)-2,5-diphenyltetrazolium bromide (MTT) (PanReac, AppliChem, Darmstadt, Germany) stock solution (5 mg/mL) was added to each well and incubated for 4 h, followed by the addition of 100 µL of SDS-HCl solution (1 g SDS/10 mL d-H2O/17 µL 6 N HCl) and further incubated for 18 h. Multiskan FC microplate photometer (Thermo Fisher Scientific, Waltham, MA, USA) was used to measure the absorbance of the converted dye formazan at 570 nm. The concentration caused 50% cell metabolic activity inhibition (IC50), which expresses the cytotoxic activity of each glycoside. The experiments were conducted in triplicate, p ≤ 0.05.

[3] = system: T-47D human breast cancer cell line; assay: cells; details: for IC50: read-out: Cytotoxicity, IC50, T-47D; for Selectivity Index (SI), T-47D: ratio of IC50 for healthy (MCF-10A) and cancer cells
in vitro = details: human
[4] = system: triple-negative MDA-MB-231 human breast cancer cell line; assay: cells; details: for IC50: read-out: Cytotoxicity, IC50, MDA-MB-231; for Selectivity Index (SI), MDA-MB-231: ratio of IC50 for healthy (MCF-10A) and cancer cells
[5] = human erythrocytes, 1 h at 37 °C, dose causing lysis of 50% erythrocytes

Row | SMILES | HC50 (human erythrocytes; [5]) | hemolytic activity (in words) (human erythrocytes; human erythrocytes) | Selectivity Index (SI), MCF-7 [1] | Selectivity Index (SI), T-47D [3] | Selectivity Index (SI), MDA-MB-231 [4] | IC50 ([1]; Homo sapiens, MCF7, 24 h) | IC50 ([3]; Homo sapiens, T47D, 24 h) | IC50 at 24 h (in vitro) | IC50 ([4]; Homo sapiens, MDA-MB-231, 24 h) | further results
1 | COC1C(O)C(CO)OC(OC2C(O)C(COS(=O)(=O)O)OC(OC3C(C)OC(OC4C(OC5CCC6(C)C7CCC8(C)C(C(C)=O)CCC8(C)C7=CCC6C5(C)C)OCC(OS(=O)(=O)O)C4O)C(OC4OCC(O)C(O)C4O)C3O)C2O)C1O (stereo not shown) [cucumarioside A3-2] | 17.9 ± 0.48 µM | moderate hemolytic activity; also recorded: low hemolytic activity |  |  |  |  |  |  |  | IC50 ([1]; Homo sapiens, MCF7, MTT, 24 h incubation): > 50 µM; cytotoxic activity against human tumor cell lines (in words) [2]: not active; IC50 ([3]; Homo sapiens, T47D, MTT, 24 h incubation): > 50 µM; IC50 (in vitro; MTT, 24 h incubation, read-out: Cytotoxicity, IC50, MCF-10A): > 50 µM; IC50 ([4]; Homo sapiens, MDA-MB-231, MTT, 24 h incubation): > 50 µM
2 | CO[C@@H]1[C@@H](O)[C@H](O[C@@H]2[C@@H](O)[C@H](O[C@H]3[C@H](O)[C@@H](O)[C@H](O[C@H]4[C@H](O[C@H]5CC[C@]6(C)[C@@H]7CCC89C(=O)O[C@@](C)(C[C@@H](O)CC(C)C)[C@H]8[C@@H](OC(C)=O)C[C@@]9(C)C7=CC[C@H]6C5(C)C)OC[C@@H](OS(=O)(=O)O)[C@@H]4O)O[C@@H]3C)OC[C@H]2O)O[C@H](CO)[C@H]1O (stereo partly shown) [djakonovioside A1, reference compound] |  |  | 0.66 | 1.15 | 1.45 |  |  |  |  | ED50, Erythrocytes (hemolytic activity) (human erythrocytes; [5]): 2.52 ± 0.23 µM; IC50 ([1]; MTT, 24 h incubation): 26.43 ± 0.14 µM; IC50 ([3]; MTT, 24 h incubation): 15.2 ± 0.96 µM; IC50 ([4]; MTT, 24 h incubation): 12.1 ± 0.54 µM
3 | COC1C(O)C(CO)OC(OC2C(O)C(CO)OC(OC3C(CO)OC(OC4C(OC5CCC6(C)C7CCC89C(=O)OC(C)(CCC=C(C)C)C8C(OC(C)=O)CC9(C)C7=CCC6C5(C)C)OCC(OS(=O)(=O)O)C4O)C(OC4OCC(O)C(O)C4O)C3O)C2O)C1O [djakonovioside D1, 3β-O-{3-O-methyl-β-D-glucopyranosyl-(1→3)-β-D-glucopyranosyl-(1→4)-[(1→2)-β-D-xylopyranosyl]-β-D-glucopyranosyl-(1→2)-4-O-sodium sulfate-β-D-xylopyranosyl}-16β-acetoxyholosta-7,24-dien] | 7.74 ± 0.37 µM |  |  |  |  | > 50 µM | > 50 µM | > 50 µM | > 50 µM | hemolytic activity (in words) (human erythrocytes; human erythrocytes, listed as D1): slightly lower but significant; hemolytic activity (in words) (human erythrocytes; human erythrocytes, listed as Djakonovioside D1): moderate hemolytic activity; also recorded: slightly less hemolytic
4 | COC1C(O)C(COS(=O)(=O)O)OC(OC2C(O)C(COS(=O)(=O)O)OC(OC3C(C)OC(OC4C(OC5CCC6(C)C7CCC8(C)C(C(C)(O)C(=O)CC=C(C)C)CCC8(C)C7=CCC6C5(C)C)OCC(OS(=O)(=O)O)C4O)C(OC4OCC(O)C(O)C4O)C3O)C2O)C1O [djakonovioside F1, 3β-O-{6-O-sodium sulfate-3-O-methyl-β-D-glucopyranosyl-(1→3)-6-O-sodium sulfate-β-D-glucopyranosyl-(1→4)-[(1→2)-β-D-xylopyranosyl]-β-D-quinovopyranosyl-(1→2)-4-O-sodium sulfate-β-D-xylopyranosyl}-(20R)-hydroxy-22-oxo-lanosta-7,24-dien] |  | high hemolytic effect | 0.63 | 1.02 | 1.16 | 36.8 ± 0.73 µM | 22.5 ± 1.78 µM | 23.2 ± 0.78 µM | 20 ± 0.63 µM | HC50 (human erythrocytes; Homo sapiens, 1 h): 0.51 ± 0.01 µM
5 | C=C(C)CCCC1(C)OC(=O)C23CCC4C(=CCC5C(C)(C)C(OC6OCC(OS(=O)(=O)O)C(O)C6OC6OCC(OC7OC(CO)C(O)C(OC8OC(CO)C(O)C(OC)C8O)C7O)C(O)C6OC6OCC(O)C(O)C6O)CCC45C)C2(C)CC(OC(C)=O)C13 (stereo not shown) [djakonoviosides C1] |  | slightly lower but significant |  |  |  |  |  |  |  | 
6 | COC1C(O)C(CO)OC(OC2C(O)C(CO)OC(OC3C(C)OC(OC4C(OC5CCC6(C)C7CCC89C(=O)OC(C)(CC=CC(C)(C)O)C8C(OC(C)=O)CC9(C)C7=CCC6C5(C)C)OCC(OS(=O)(=O)O)C4O)C(OC4OCC(O)C(O)C4O)C3O)C2O)C1O (stereo not shown) [frondoside A2-3] | > 50 µM | absence of the activity |  |  |  | > 50 µM | > 50 µM | > 50 µM | > 50 µM | hemolytic activity (in words) (human erythrocytes; human erythrocytes, listed as Frondoside A2-3): did not show hemolytic or cytotoxic activity
7 | COC1C(O)C(COS(=O)(=O)O)OC(OC2C(O)C(COS(=O)(=O)O)OC(OC3C(C)OC(OC4C(OC5CCC6(C)C7=CCC8(C)C(C(C)=O)CCC8(C)C7CCC6C5(C)C)OCC(OS(=O)(=O)O)C4O)C(OC4OCC(O)C(O)C4O)C3O)C2O)C1O (stereo not shown) [isokoreoside A] | 17.4 ± 0.57 µM | moderate hemolytic activity; also recorded: low hemolytic activity |  |  |  | > 50 µM | > 50 µM | > 50 µM | > 50 µM | 
8 | COC1C(O)C(COS(=O)(=O)O)OC(OC2C(O)C(COS(=O)(=O)O)OC(OC3C(C)OC(OC4C(OC5CCC6(C)C7CCC8(C)C(C(C)=O)CCC8(C)C7=CCC6C5(C)C)OCC(OS(=O)(=O)O)C4O)C(OC4OCC(O)C(O)C4O)C3O)C2O)C1O (stereo not shown) [koreoside A] | > 50 µM | did not show hemolytic or cytotoxic activity; also recorded: complete loss of the activity |  |  |  | > 50 µM | > 50 µM | > 50 µM | > 50 µM | 
9 | C=C(C)CCCC1(C)OC(=O)C23CCC4C(=CCC5C(C)(C)C(OC6OCC(OS(=O)(=O)O)C(O)C6OC6OC(CO)C(OC7OC(CO)C(O)C(OC8OC(CO)C(O)C(OC)C8O)C7O)C(O)C6OC6OCC(O)C(O)C6O)CCC45C)C2(C)CC(OC(C)=O)C13 (stereo not shown) [okhotoside A2-1] | 1.53 ± 0.14 µM |  | 0.31 | 1.03 | 0.97 | 39.81 ± 0.18 µM | 11.9 ± 0.42 µM | 12.2 ± 0.16 µM | 12.6 ± 0.16 µM | 
